Experiments:
hBChE in SH-SY5Y cells = target: T1, hBChE in SH-SY5Y cells (Homo sapiens, UniProt P06276); assay: hBChE inhibition assay in SH-SY5Y cells; type: cell-based; conditions: 10 and 1 μM; compared with control ethopropazine
T1 construct: endogenous in cells; host or cells: SH-SY5Y human neuroblastoma cells
Protocol: hBChE activity in live whole SH-SY5Y cells was measured by the modified procedure of Onder and colleagues. Briefly, after centrifugation, the complete medium was removed and cells were suspended in PBS warmed to 37 °C. 50 μL of this suspension was added to a 96-well plate so that each well contained approximately 360,000 cells. 81 μL of 0.5 mM 5,5′-dithiobis (2-nitrobenzoic acid) in 0.1 M potassium phosphate buffer (pH 7.0) was added, followed by 2 μL of DMSO solutions of compounds 94, 95, or ethopropazine (positive control). The reaction was initiated by the addition of 67 μL of 1 mM acetylthiocholine. The total reagent volume in each well was 200 μL. The microplate was covered with a lid to minimize evaporation while absorbance at 412 nm was recorded over a period of 120 min with a 30 s interval on a Tecan Spark microplate reader (Tecan Austria GmbH, Salzburg, Austria) set to 24 °C. Autohydrolysis rates of butyrylthiocholine were measured in wells that contained all reagents + PBS with no cells. The residual activity of hBChE was then calculated by the protocol described above.

T1 sequence (P06276 29-602): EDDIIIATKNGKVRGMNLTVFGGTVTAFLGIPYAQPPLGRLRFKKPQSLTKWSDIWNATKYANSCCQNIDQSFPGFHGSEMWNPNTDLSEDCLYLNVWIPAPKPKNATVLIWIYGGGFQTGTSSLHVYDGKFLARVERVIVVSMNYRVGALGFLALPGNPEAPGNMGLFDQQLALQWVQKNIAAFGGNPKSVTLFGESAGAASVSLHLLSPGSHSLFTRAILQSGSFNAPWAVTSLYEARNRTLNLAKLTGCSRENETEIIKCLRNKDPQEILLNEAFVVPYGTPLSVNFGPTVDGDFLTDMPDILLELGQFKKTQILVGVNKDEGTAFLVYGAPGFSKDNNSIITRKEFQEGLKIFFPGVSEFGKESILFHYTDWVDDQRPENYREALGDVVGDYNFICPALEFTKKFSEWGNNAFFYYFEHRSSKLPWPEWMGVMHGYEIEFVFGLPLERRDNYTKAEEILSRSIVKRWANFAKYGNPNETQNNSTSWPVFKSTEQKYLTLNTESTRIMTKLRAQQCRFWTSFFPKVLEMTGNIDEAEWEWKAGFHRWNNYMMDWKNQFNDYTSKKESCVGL

Row | SMILES | RA @ 1000nM (INSR) | RA @ 10000nM (INSR) | RA @ 1000nM (EGFR(L858R)) | RA @ 10000nM (EGFR(L858R)) | RA @ 1000nM (MAP3K4) | RA @ 10000nM (MAP3K4) | RA @ 1000nM (FGFR3) | RA @ 10000nM (FGFR3) | RA @ 1000nM (TSSK1B) | RA @ 10000nM (TSSK1B) | RA @ 1000nM (SRC) | RA @ 10000nM (SRC) | RA @ 1000nM (PIK3CA) | RA @ 10000nM (PIK3CA) | RA @ 1000nM (EGFR) | RA @ 10000nM (EGFR) | RA @ 1000nM (ABL1-phosphorylated) | RA @ 10000nM (ABL1-phosphorylated) | RA @ 1000nM (PIM2) | RA @ 10000nM (PIM2) | also measured
1 | CN(C)CCNC(=O)c1cc2c(cnn2CC2CCCCC2)cc1Cc1ccc(F)cc1F [Compound 95, 1-(Cyclohexylmethyl)-5-(2,4-difluorobenzyl)-N-(2-(dimethylamino)ethyl)-1H-indazole-6-carboxamide] | 84% | 81% | 100% | 100% | 100% | 60% | 100% | 92% | 100% | 79% | 100% | 93% | 100% | 100% | 100% | 100% | 81% | 85% | 100% | 100% | RA at 100 µM (hAChE): 53.4 ± 0.8%; hBChE inhibition in SH-SY5Y human neuroblastoma cell line (hBChE in SH-SY5Y cells): outperformed the control ethopropazine; RA @ 1000nM (CSF1R): 100%; RA @ 10000nM (CSF1R): 79%; RA @ 1000nM (ERK1): 96%; RA @ 10000nM (ERK1): 90%; RA @ 1000nM (FLT3): 100%; RA @ 10000nM (FLT3): 100%
2 | CC(C)Cn1ncc2cc(Cc3ccc(F)cc3F)c(C(=O)NCCN(C)C)cc21 [Compound 94, 5-(2,4-Difluorobenzyl)-N-(2-(dimethylamino)ethyl)-1-isobutyl-1H-indazole-6-carboxamide] | 81% | 90% | 100% | 66% | 49% | 100% | 100% | 100% | 77% | 89% | 100% | 94% | 77% | 95% | 98% | 69% | 79% | 53% | 100% | 100% | hBChE inhibition in SH-SY5Y human neuroblastoma cell line (hBChE in SH-SY5Y cells): outperformed the control ethopropazine; RA @ 1000nM (CSF1R): 100%; RA @ 10000nM (CSF1R): 86%; RA @ 1000nM (ERK1): 87%; RA @ 10000nM (ERK1): 87%; RA @ 1000nM (FLT3): 100%; RA @ 10000nM (FLT3): 90%

Source: publication PMC12406203 (Journal of Medicinal Chemistry, 2025)
